Data: patent publication EP4691462A1, “SILYBIN-CONTAINING COMPOSITION” (Tianjin Tasly Sants Pharmaceutical Co., Ltd., priority 2023, dated 2024)

These molecules were tested on Col1a1-Luci-reporter luciferase in LX-2 cells (assay: HSCs activation model based on Col1a1-Luci-reporter luciferase in transfected LX-2 cells (Duo-Lite luciferase assay; CI by CompuSyn)). Settings: 10 µM, 20 µM, 50 µM, 12 hours.
Format: cell-based, human
Description: LX-2 cells were inoculated into 96-well plates and cultured to a suitable density. Then, Lipofectamine 3000 liposome transfection reagent was used to prepare transfection system. Each well was transfected with 0.1 µg plasmid, of which the Empty vector group was transfected with pEZX-FR03-hygro empty plasmid, and the Control group and other administration groups were transfected with pEZX-FR03-hygro-COL1A1-WT plasmid.
The LX-2 cell line was transfected with plasmid for 6 hours, and then the drug-containing serum-free medium containing 2.5 mM, 5 mM, and 10 mM anti-fibrosis agent Pirfenidone was replaced according to groups for incubation for 12 hours, and then tested by the Duo-LitTM Luciferase Assay System kit.
The cell culture plate to be tested was taken out into the incubator, and left at room temperature for 30 min to allow the temperature of the culture plate to be balanced to room temperature. Firefly luciferase activity was detected. The original culture medium was discarded, and added with 75 µl PBS, then added with Duo-Lite Luciferase detection reagent with the same volume as PBS, and was mixed evenly. The system was left at room temperature for 10 min to detect firefly luciferase luminescence.
(§1) The LX-2 cell line was transfected with plasmid for 6 hours, and then the drug-containing serum-free medium containing 10 µM, 20 µM, 50 µM Silybin was replaced according to groups for incubation for 12 hours, and then tested by the Duo-LitTM Luciferase Assay System kit.
as §1, with “µM silybin, 10 µM drug to be screened,” for “µM,”, “20” for “20 µM, 50”, “silybin, 20 µM drug to be screened at a mixed ratio of 1:1” for “Silybin”
Cell activation inhibition rate% = (Control Group Firefly- Administration Group Firefly)/ Control Group Firefly ×100%. The CI value was obtained by analysis using micro-use CompuSyn software. […]

With `COc1cc(C2Oc3cc([C@H]4Oc5cc(O)cc(O)c5C(=O)[C@@H]4O)ccc3OC2CO)ccc1O` (stereo partly shown) [silybin] the “inhibitory effect on activation of stellate cells in vitro” value was “no significant inhibitory effect”.

Same assay, conditions: 5 mM and 10 mM, 12 hours, clear dose-dependence

With `Cc1ccc(=O)n(-c2ccccc2)c1` [Pirfenidone] the “expression level of luciferase” value was “significantly decreased”.

Same assay, conditions: named drug combined with silybin, mixed ratio 1:1, 12 hours, CI<0.90 synergistic, 0.90<CI<1.10 additive

Compared with `OC[C@@H](O)[C@@H](O)[C@H](O)[C@H](O)CO` [D-mannitol], `CCCCC(=O)N(Cc1ccc(-c2ccccc2-c2nnn[nH]2)cc1)[C@H](C(=O)O)C(C)C` [valsartan] is lower in CI: 0.66 for the first, 0.47 for the second.

Compared with `O=C(O)COC(=O)Cc1ccccc1Nc1c(Cl)cccc1Cl` [aceclofenac], `CCOC(=O)C1=C(COCCN)NC(C)=C(C(=O)OC)C1c1ccccc1Cl` (stereo not shown) [amlodipine] is higher in CI: 0.46 for the first, 0.62 for the second.

Going from `CCCC1O[C@@H]2C[C@H]3[C@@H]4CCC5=CC(=O)C=C[C@]5(C)[C@H]4[C@@H](O)C[C@]3(C)[C@]2(C(=O)CO)O1` (stereo partly shown) [budesonide] to `CCC(=O)O[C@]1(C(=O)CCl)[C@@H](C)C[C@H]2[C@@H]3CCC4=CC(=O)C=C[C@]4(C)[C@@]3(F)[C@@H](O)C[C@@]21C` [clobetasol propionate], the CI falls from 0.91 to 0.86.

Compared with `COc1ccccc1OCCNCC(O)COc1cccc2[nH]c3ccccc3c12` (stereo not shown) [carvedilol], `CCOc1ccccc1OCCN[C@H](C)Cc1ccc(OC)c(S(N)(=O)=O)c1` [tamsulosin] is higher in CI: 0.11 for the first, 0.50 for the second.

Going from `COCCOC(=O)C1=C(C)NC(C)=C(C(=O)OC/C=C/c2ccccc2)C1c1cccc([N+](=O)[O-])c1` (stereo not shown) [cilnidipine] to `COC(=O)C1=C(C)NC(C)=C(C(=O)OCCN(C)Cc2ccccc2)C1c1cccc([N+](=O)[O-])c1` (stereo not shown) [nicardipine], the CI falls from 0.79 to 0.31.

For `COC(=O)C1=C(C)NC(C)=C(C(=O)OCCN2CCN(C(c3ccccc3)c3ccccc3)CC2)C1c1cccc([N+](=O)[O-])c1` (stereo not shown) [manidipine], the CI was 0.54.
